Data set [1] can be described thus: Oral bioavailability of prototype 17-AAG solid dosage form (capsule) in female rats. The conditions noted are these: rat; for 17-AAG AUC(0-6)^b: oral capsule (17-AAG 33%, Neusilin 64%, SLS 3%), AUC estimated from 0 to 8 hrs; for 17-AAG Cmax / 17-AG Cmax / Apparent Absolute Bioavailability: oral capsule; for 17-AG Cmax: metabolite 17-AG; for Apparent Absolute Bioavailability: vs intravenous 10 mg/kg of earlier study. The class given is in vivo, Sprague-Dawley rats. The procedure: See, Example 18. […] The average dose administered was 14.3 mg/kg.
The average dose administered was 14.3 mg/kg. Blood samples (n=11) were collected via the jugular vein catheter prior to dosing and up to 8 hrs post dosing. The blood was allowed to clot at room temperature for approximately 20 minutes and then placed on ice until centrifugation at 10,000×G for 10 minutes. Serum was collected into polypropylene tubes and frozen at −80° C. until analysis.
% F=[(Oral AUC(0-6h)×I.V. Dose)/(I.V. AUC(0-6h)×Oral Dose)]*100

The nature of data set [2]: Solubility of 17-AAG in organic solvents suitable for oral administration. The class given is physicochemical. From the text: In other embodiments, pharmaceutical acceptable co-solvents may be added to the phospholipid formulation to further enhance the solubility of the ansamycins. Many suitable co-solvents which are known in the art may be used. […] The resulted formulation can then be combined with any combinations of the general excipients: fillers, glidants, lubricants, disintegrants, binders, solubilizers to form the various oral compositions.

Data set [3] is described as follows: Effect of sodium lauryl sulfate on aqueous solubility of 17-AAG. The conditions noted are these: pH 6.0, sodium lauryl sulfate. The format is physicochemical. The text has this:
Formulations of the invention may contain as much as 50% SLS.

[4] abbreviates: 13.6-15.1 mg/kg, individual animal.

What is called Solubility is the concentration that dissolves in the medium under given conditions.

The structures appear in SMILES notation. Several values for one entry are separate records, joined by “and”; a condition that tells them apart may be missing. Equal values may be shown once.

For the compound `C=CCNC1=C2C[C@@H](C)C[C@H](OC)[C@H](O)[C@@H](C)/C=C(\C)[C@H](OC(N)=O)[C@@H](OC)/C=C\C=C(/C)C(=O)NC(=CC1=O)C2=O` [Compound 17-AAG, 17-allylamino-17-demethoxygeldanamycin], the “17-AAG AUC(0-6)^b” value in data set [1] (setting [4]) is 32 µg·min/mL and 19 µg·min/mL and 34 µg·min/mL; in data set [1] (mean dose 14.3 mg/kg, mean n=3), 28 µg·min/mL. Besides, the “17-AAG Cmax” value in data set [1] (setting [4]) is 158 ng/mL and 117 ng/mL and 141 ng/mL; in data set [1] (mean dose 14.3 mg/kg, mean n=3) it was 139 ± 21 ng/mL. Besides, the “17-AG Cmax” value in data set [1] (setting [4]) was 70 ng/mL and 61 ng/mL and 52 ng/mL; in data set [1] (mean dose 14.3 mg/kg, mean n=3), 61 ± 9 ng/mL. Besides, the “Apparent Absolute Bioavailability” value in data set [1] (setting [4]) was 15% and 8% and 16%; in data set [1] (mean dose 14.3 mg/kg, mean n=3), 13±4%. Besides, the Solubility is listed as 1.1 mg/mL in data set [2] (solvent Glycerol); 47.0 mg/mL in data set [2] (solvent Glycofurol); 2.4 mg/mL in data set [2] (solvent Labrafil (Apricot Kernol Oil PEG-6 Esters)); 16.1 mg/mL in data set [2] (solvent Labrasol (PEG-8 Caprylic/Capric Glycerides)); 12.9 mg/mL in data set [2] (solvent Polyethylene glycol 400); 12.8 mg/mL in data set [2] (solvent Propylene Carbonate). Moreover, the Solubility in data set [2] (solvent Solutol HS15) amounted to 12.4 mg/mL; in data set [2] (solvent Transcutol HP (Ethoxydiglycol)) it was 57.7 mg/mL; in data set [2] (solvent Tween 80), 33.8 mg/mL. Besides, the “aqueous solubility versus SLS concentration” value in data set [3] is “increases linearly with increasing concentration of SLS”.

Source of the values: US20100063020A1, “ORAL PHARMACEUTICAL FORMULATIONS AND METHODS FOR PRODUCING AND USING SAME” (priority 2004, published 2010).
